Source: the supplement of paper PMC10627819

Columns and labels:
S. aureus DSM 20231 [1] = assay: fitness (endpoint OD595 vs no drug) (fraction); higher = more growth
Outline: (§1)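 Fitness is computed from the optical density at which cultures reach stationary phase, divided by the robust mean of no-drug control wells. Any value above 1 is set to 1. Cultures started at OD595 0.01 in 384-well plates with TSB, LB Lennox or CY at 37 °C, and OD595 was read every 30 min for 14 h against a first-reading background.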

S. aureus Newman [2] = assay: as above
Outline: as §1

S. pneumoniae D39V [3] = assay: as above
Outline: as §1

B. subtilis 168 = assay: Bliss interaction score (quartile over a dose matrix) (fitness difference); higher = more antagonism (negative = synergy)
Outline: (§2)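 Each OD595 reading at entry into stationary phase was scaled to the robust mean of the untreated wells on its plate, with a ceiling of 1. These ratios define fitness, and single-drug fitness was inferred from combinations. The Bliss score compares observed fitness with the product-based expectation and is reported as quartiles across all replicate types, technical, biological and donor/recipient.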

S. aureus DSM 20231 [4] = assay: as above
Outline: as §2

S. aureus Newman [5] = assay: as above
Outline: as §2

S. pneumoniae D39V [6] = assay: as above
Outline: as §2
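Throughout, for Bliss interaction score (quartile over a dose matrix): first quartile when negative (synergy) and third quartile when positive (antagonism).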
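Throughout, for fitness (endpoint OD595 vs no drug): OD595 on entry to stationary phase over no-drug wells; at most 1.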

CCN(CC)CCOC(=O)c1ccc(N)cc1 [Procaine] + CN[C@H](CC(C)C)C(=O)N[C@H]1C(=O)N[C@@H](CC(N)=O)C(=O)N[C@H]2C(=O)N[C@H]3C(=O)N[C@H](C(=O)N[C@H](C(=O)O)c4cc(O)cc(O)c4-c4cc3ccc4O)[C@H](O)c3ccc(c(Cl)c3)Oc3cc2cc(c3O[C@@H]2O[C@H](CO)[C@@H](O)[C@H](O)[C@H]2O[C@H]2C[C@](C)(N)[C@H](O)[C@H](C)O2)Oc2ccc(cc2Cl)[C@H]1O [Vancomycin]
fitness
Settings	partner 0.03125 µg/mL	partner 0.0625 µg/mL	partner 0.125 µg/mL	partner 0.1875 µg/mL	partner 0.375 µg/mL	partner 0.75 µg/mL
S. aureus DSM 20231 [1], first compound 85.5 µg/mL	–	–	–	0.969	0.999	0.953
S. aureus DSM 20231 [1], first compound 171 µg/mL	–	–	–	0.953	≥ 1	0.982
S. aureus DSM 20231 [1], first compound 342 µg/mL	–	–	–	0.883	0.983	≥ 1
S. aureus Newman [2], first compound 342 µg/mL	–	–	–	0.962	0.999	0.98
S. pneumoniae D39V [3], first compound 85.5 µg/mL	≥ 1	0.963	0.742	–	–	–
S. pneumoniae D39V [3], first compound 171 µg/mL	0.978	0.955	0.903	–	–	–
S. pneumoniae D39V [3], first compound 342 µg/mL	0.952	0.921	0.907	–	–	–

fitness, S. pneumoniae D39V [3], one replicate
Settings	first compound 85.5 µg/mL	first compound 171 µg/mL	first compound 342 µg/mL
partner 0.25 µg/mL	0.0963	0.383	0.674
partner 0.5 µg/mL	0.0592	0.0925	0.148

Settings	Bliss interaction score
B. subtilis 168	0.0237
S. aureus DSM 20231 [4]	0.0492
S. aureus Newman [5]	0.0558
S. pneumoniae D39V [6]	-0.0761

CO/N=C(\C(=O)N[C@@H]1C(=O)N2C(C(=O)[O-])=C(C[N+]3(C)CCCC3)CS[C@H]12)c1csc(N)n1 [Cefepime] + CN1C2=CC=CC=C2N=C3C1=CC=CC3=O [Pyocyanin]
Settings	fitness
S. aureus DSM 20231 [1], first compound 0.125 µg/mL, partner 1.25 µg/mL	0.854
S. aureus DSM 20231 [1], first compound 0.125 µg/mL, partner 2.5 µg/mL	0.846
S. aureus DSM 20231 [1], first compound 0.125 µg/mL, partner 5 µg/mL	0.639
S. aureus DSM 20231 [1], first compound 0.25 µg/mL, partner 1.25 µg/mL	0.837
S. aureus DSM 20231 [1], first compound 0.25 µg/mL, partner 2.5 µg/mL	0.831
S. aureus DSM 20231 [1], first compound 0.25 µg/mL, partner 5 µg/mL	0.564
S. aureus DSM 20231 [1], first compound 0.5 µg/mL, partner 1.25 µg/mL	0.786
S. aureus DSM 20231 [1], first compound 0.5 µg/mL, partner 5 µg/mL	0.571
S. aureus Newman [2], first compound 0.125 µg/mL, partner 1.25 µg/mL	0.85
S. aureus Newman [2], first compound 0.125 µg/mL, partner 2.5 µg/mL	0.819
S. aureus Newman [2], first compound 0.125 µg/mL, partner 5 µg/mL	0.56
S. aureus Newman [2], first compound 0.25 µg/mL, partner 1.25 µg/mL	0.804
S. aureus Newman [2], first compound 0.25 µg/mL, partner 2.5 µg/mL	0.783
S. aureus Newman [2], first compound 0.25 µg/mL, partner 5 µg/mL	0.508
S. aureus Newman [2], first compound 0.5 µg/mL, partner 1.25 µg/mL	0.748
S. aureus Newman [2], first compound 0.5 µg/mL, partner 2.5 µg/mL	0.702
S. aureus Newman [2], first compound 0.5 µg/mL, partner 5 µg/mL	0.535
S. pneumoniae D39V [3], first compound 0.007 µg/mL, partner 0.325 µg/mL	≥ 1
S. pneumoniae D39V [3], first compound 0.007 µg/mL, partner 0.65 µg/mL	≥ 1
S. pneumoniae D39V [3], first compound 0.007 µg/mL, partner 1.3 µg/mL	0.963
S. pneumoniae D39V [3], first compound 0.014 µg/mL, partner 0.325 µg/mL	≥ 1
S. pneumoniae D39V [3], first compound 0.014 µg/mL, partner 0.65 µg/mL	0.997
S. pneumoniae D39V [3], first compound 0.014 µg/mL, partner 1.3 µg/mL	0.961
S. pneumoniae D39V [3], first compound 0.028 µg/mL, partner 0.325 µg/mL	0.946
S. pneumoniae D39V [3], first compound 0.028 µg/mL, partner 0.65 µg/mL	0.974
S. pneumoniae D39V [3], first compound 0.028 µg/mL, partner 1.3 µg/mL	0.943

fitness, S. pneumoniae D39V [3], one replicate
Settings	first compound 0.0078 µg/mL	first compound 0.0155 µg/mL	first compound 0.031 µg/mL
partner 0.325 µg/mL	≥ 1	≥ 1	0.786
partner 0.65 µg/mL	≥ 1	≥ 1	0.907

Settings	Bliss interaction score
B. subtilis 168	0.0781
S. aureus DSM 20231 [4]	-0.078
S. aureus Newman [5]	0.0752
S. pneumoniae D39V [6]	0.126

CC1(C)S[C@@H]2[C@H](NC(=O)[C@H](N)c3ccc(O)cc3)C(=O)N2[C@H]1C(=O)O [Amoxicillin] + CN[C@@H]1[C@H](O)[C@H](NC)[C@H]2O[C@@]3(O)C(=O)C[C@@H](C)O[C@H]3O[C@@H]2[C@H]1O [Spectinomycin]
fitness
Settings	partner 4 µg/mL	partner 8 µg/mL	partner 16 µg/mL
S. aureus DSM 20231 [1], first compound 0.0625 µg/mL	0.649	0.63	0.572
S. aureus DSM 20231 [1], first compound 0.125 µg/mL	0.414	–	–
S. aureus DSM 20231 [1], first compound 0.25 µg/mL	–	0.148	–
S. aureus Newman [2], first compound 0.0625 µg/mL	0.874	0.876	0.823
S. aureus Newman [2], first compound 0.125 µg/mL	0.875	0.861	0.816
S. aureus Newman [2], first compound 0.25 µg/mL	0.863	0.826	–
S. pneumoniae D39V [3], first compound 0.0008 µg/mL	0.962	0.911	–
S. pneumoniae D39V [3], first compound 0.0015 µg/mL	0.975	0.94	0.887
S. pneumoniae D39V [3], first compound 0.003 µg/mL	0.882	0.89	0.826

one replicate
Settings	fitness
S. aureus DSM 20231 [1], first compound 0.0625 µg/mL, partner 32 µg/mL	0.533
S. aureus DSM 20231 [1], first compound 0.0625 µg/mL, partner 64 µg/mL	0.0322
S. aureus DSM 20231 [1], first compound 0.125 µg/mL, partner 32 µg/mL	0.302
S. aureus DSM 20231 [1], first compound 0.125 µg/mL, partner 64 µg/mL	0.0172
S. aureus DSM 20231 [1], first compound 0.25 µg/mL, partner 32 µg/mL	0.0187
S. aureus DSM 20231 [1], first compound 0.25 µg/mL, partner 64 µg/mL	0.0033
S. aureus DSM 20231 [1], first compound 0.5 µg/mL, partner 4 µg/mL	0.0014
S. aureus DSM 20231 [1], first compound 0.5 µg/mL, partner 8 µg/mL	0.0081
S. aureus DSM 20231 [1], first compound 0.5 µg/mL, partner 16 µg/mL	0
S. aureus Newman [2], first compound 0.0625 µg/mL, partner 32 µg/mL	0.373
S. aureus Newman [2], first compound 0.0625 µg/mL, partner 64 µg/mL	0.0208
S. aureus Newman [2], first compound 0.125 µg/mL, partner 32 µg/mL	0.308
S. aureus Newman [2], first compound 0.125 µg/mL, partner 64 µg/mL	0.03
S. aureus Newman [2], first compound 0.25 µg/mL, partner 32 µg/mL	0.141
S. aureus Newman [2], first compound 0.25 µg/mL, partner 64 µg/mL	0.0162
S. pneumoniae D39V [3], first compound 0.0008 µg/mL, partner 16 µg/mL	0.951
S. pneumoniae D39V [3], first compound 0.006 µg/mL, partner 4 µg/mL	0.274
S. pneumoniae D39V [3], first compound 0.006 µg/mL, partner 8 µg/mL	0.329
S. pneumoniae D39V [3], first compound 0.006 µg/mL, partner 16 µg/mL	0.416

Settings	Bliss interaction score
B. subtilis 168	-0.0495
S. aureus DSM 20231 [4]	0.0589
S. aureus Newman [5]	0.0408
S. pneumoniae D39V [6]	0.0712
